# Assay results: publication PMC6328172, “5-HT2 receptor binding, functional activity and selectivity in N-benzyltryptamines” (PLoS ONE, 2019)
# Where two headings read alike, the source gives them in different places.
# What was measured:
# [1] = molecular target: T1, human 5-HT2A receptor (Homo sapiens, UniProt P28223); assay: Competition binding to the human 5-HT2A receptor ([3H]ketanserin, CHO-5-HT2A membranes); details: for Selectivity 5-HT2A/2C (binding): from Ki values, Table 1; for Ki: human receptor, [3H]ketanserin displacement
# T1 construct: expressed in transfected cells; host or cells: CHO (CHO-5-HT2A cell line)
# T1 sequence (P28223 whole entry): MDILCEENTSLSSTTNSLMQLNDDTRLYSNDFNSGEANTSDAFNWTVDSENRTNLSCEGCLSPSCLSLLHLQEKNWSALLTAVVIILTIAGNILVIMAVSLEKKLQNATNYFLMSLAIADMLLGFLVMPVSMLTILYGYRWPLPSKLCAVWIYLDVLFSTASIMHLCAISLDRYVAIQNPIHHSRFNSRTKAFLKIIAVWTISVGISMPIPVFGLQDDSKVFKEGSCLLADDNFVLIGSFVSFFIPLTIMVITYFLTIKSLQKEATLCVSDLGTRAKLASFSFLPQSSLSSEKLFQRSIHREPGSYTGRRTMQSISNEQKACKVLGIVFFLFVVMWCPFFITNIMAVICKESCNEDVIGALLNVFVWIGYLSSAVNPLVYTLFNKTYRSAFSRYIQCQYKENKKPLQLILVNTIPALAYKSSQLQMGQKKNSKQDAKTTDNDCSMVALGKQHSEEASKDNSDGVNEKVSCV
# [2] = molecular target: T2, human 5-HT2C receptor (Homo sapiens, UniProt P28335); assay: Competition binding to the human 5-HT2C receptor ([3H]mesulergine, HeLa-5-HT2C membranes); details: for Selectivity 5-HT2C/2A (binding, in parentheses): from Ki values, Table 1; for Ki: human receptor, [3H]mesulergine displacement, no unit in the table, nM, read-out: 5-HT2C Ki (in parentheses) (converted)
# T2 construct: expressed in transfected cells; host or cells: HeLa (HeLa-5-HT2C cell line)
# T2 sequence (P28335 33-458): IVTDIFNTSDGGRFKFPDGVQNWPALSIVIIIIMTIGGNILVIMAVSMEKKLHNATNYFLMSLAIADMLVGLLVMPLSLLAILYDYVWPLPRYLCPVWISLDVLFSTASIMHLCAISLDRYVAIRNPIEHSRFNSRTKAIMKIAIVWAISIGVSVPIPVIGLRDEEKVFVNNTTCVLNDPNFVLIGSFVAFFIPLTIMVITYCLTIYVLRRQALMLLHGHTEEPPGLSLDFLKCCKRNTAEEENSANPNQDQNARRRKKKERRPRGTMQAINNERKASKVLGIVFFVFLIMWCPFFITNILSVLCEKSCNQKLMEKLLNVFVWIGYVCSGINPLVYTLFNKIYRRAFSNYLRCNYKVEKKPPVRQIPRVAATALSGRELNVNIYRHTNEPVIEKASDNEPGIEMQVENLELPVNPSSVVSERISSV
# [3] = molecular target: T1, human 5-HT2A receptor; assay: Ca2+ mobilization in CHO h5-HT2A cells; format: cell-based; details: for Selectivity 5-HT2A/2C (functional): from EC50 values, Table 2; for Emax: relative efficacy, % of response to 5-HT
# [4] = molecular target: T2, human 5-HT2C receptor; assay: Ca2+ mobilization in HeLa h5-HT2C cells; format: cell-based; details: for EC50: no unit in the table, nM; for Emax: HeLa, read-out: 5-HT2C % Emax; for Selectivity 5-HT2C/2A (functional, in parentheses): from EC50 values, Table 2
# [5] = molecular target: human 5-HT2B receptor (Homo sapiens, UniProt P41595); assay: Competition binding to the human 5-HT2B receptor ([3H]LSD, CHO-5-HT2B membranes)
# human 5-HT2B receptor, sequence (P41595 whole entry): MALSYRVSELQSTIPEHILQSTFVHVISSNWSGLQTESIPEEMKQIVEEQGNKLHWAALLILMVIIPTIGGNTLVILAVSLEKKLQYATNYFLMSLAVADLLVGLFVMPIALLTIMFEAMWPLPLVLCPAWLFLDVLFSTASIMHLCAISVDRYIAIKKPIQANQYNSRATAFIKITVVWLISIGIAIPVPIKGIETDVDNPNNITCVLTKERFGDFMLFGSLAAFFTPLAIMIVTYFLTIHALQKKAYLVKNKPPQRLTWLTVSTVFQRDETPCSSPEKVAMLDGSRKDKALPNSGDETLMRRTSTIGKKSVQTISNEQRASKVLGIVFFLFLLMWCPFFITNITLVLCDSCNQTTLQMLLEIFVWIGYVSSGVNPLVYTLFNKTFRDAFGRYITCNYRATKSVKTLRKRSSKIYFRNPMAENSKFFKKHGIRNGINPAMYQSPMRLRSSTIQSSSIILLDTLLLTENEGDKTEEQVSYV
# [6] = no unit in the table, nM, read-out: 5-HT2A Ki (in parentheses) (converted)
# [7] = Ca2+ mobilization, no unit in the table, nM, read-out: 5-HT2A EC50 (in parentheses) (converted)
# [8] = Ca2+ mobilization, read-out: 5-HT2C EC50 (in parentheses) (converted)
# [9] = Ca2+ mobilization, pEC50 ± SEM, read-out: 5-HT2A pEC50 (converted)
Compound,Selectivity 5-HT2A/2C (binding) [1],"Ki [1, 6]","Selectivity 5-HT2C/2A (binding, in parentheses) [2]",Ki [2],"EC50 [3, 7]",Selectivity 5-HT2A/2C (functional) [3],Emax [3],"EC50 [4, 8]",Emax [4],"Selectivity 5-HT2C/2A (functional, in parentheses) [4]",Ki [5],functional activity at h5-HT2A receptor (in words) ([3]; Ca2+ mobilization),"5-HT2A pEC50 ([3]; Ca2+ mobilization, pEC50 ± SEM)","EC50 [3, 9]","EC50 ([4]; 5-HT2C EC50 (in parentheses), Ca2+ mobilization)",times less potent than lorcaserin ([4]; 5-HT2C functional potency),functional activity at h5-HT2C receptor (in words) ([4]; Ca2+ mobilization),Ki ([1]; read-out: 5-HT2A pKi ± S.E.M. (converted))
"Fc1cccc(CNCCc2c[nH]c3ccccc23)c1 [Compound 9, N-(3-Fluorobenzyl)-[2-(1H-indol-3-yl)ethyl]amine]",0.84,257 nM,1.19,214 nM,389 nM,0.29,33.8 ± 4.01%,112 nM,112 ± 4.84%,3.47,126 nM,,,,,,,
"Clc1cccc(CNCCc2c[nH]c3ccccc23)c1 [Compound 10, N-(3-Chlorobenzyl)-[2-(1H-indol-3-yl)ethyl]amine]",2.17,44.7 nM,0.46,97.7 nM,120 nM,2.34,57.9 ± 4.15%,282 nM,117 ± 4.82%,0.43,34.7 nM,,,,,,,
"Brc1cccc(CNCCc2c[nH]c3ccccc23)c1 [Compound 11, N-(3-Bromobenzyl)-[2-(1H-indol-3-yl)ethyl]amine]",,8.13 nM,,75.9 nM,58.9 nM,0.93,32.6 ± 1.64%,55 nM,107 ± 2.78%,1.07,21.9 nM,,,,,,,
"CCOc1ccc(CNCCc2c[nH]c3ccccc23)cc1 [Compound 15, N-(4-Ethoxybenzyl)-[2-(1H-indol-3-yl)ethyl]amine]",2.66,275 nM,0.36,741 nM,363 nM,0.032,36.7 ± 6.13%,11.7 nM,93.2 ± 3.26%,30.9,269 nM,,,,,,,
"Clc1ccc(CNCCc2c[nH]c3ccccc23)cc1 [Compound 16, N-(4-Chlorobenzyl)-[2-(1H-indol-3-yl)ethyl]amine]",1.37,708 nM,0.73,955 nM,58.9 nM,0.85,80 ± 4.54%,50.1 nM,98.3 ± 4.18%,1.17,224 nM,,,,,,,
"Brc1ccc(CNCCc2c[nH]c3ccccc23)cc1 [Compound 17, N-(4-Bromobenzyl)-[2-(1H-indol-3-yl)ethyl]amine]",1.09,1000 nM,0.92,1070 nM,,,,6760 nM,110 ± 4.3%,,263 nM,too low for quantification,,,,,,
"COc1cccc(CNCCc2c[nH]c3ccccc23)c1O [Compound 19, N-(2-Hydroxy-3-methoxybenzyl)-[2-(1H-indol-3-yl)ethyl]amine]",0.58,26.3 nM,1.72,16.6 nM,49 nM,1.91,26.2 ± 2.34%,93.3 nM,107 ± 6.91%,0.52,13.2 nM,,,,,,,
"Oc1c(Br)cccc1CNCCc1c[nH]c2ccccc12 [Compound 21, N-(3-Bromo-2-hydroxybenzyl)-[2-(1H-indol-3-yl)ethyl]amine]",9.8,14.1 nM,0.10,138 nM,15800 nM,0.0017,40.4 ± 6.23%,27.5 nM,98.8 ± 2.83%,575,15.5 nM,extremely weak h5-HT2A partial agonist,4.80,15800 nM,27 nM,about 3 times,full agonist,
"Oc1c(F)cccc1CNCCc1c[nH]c2ccccc12 [Compound 22, N-(3-Fluoro-2-hydroxybenzyl)-[2-(1H-indol-3-yl)ethyl]amine]",0.82,209 nM,1.22,178 nM,162 nM,0.105,53.6 ± 4.49%,17 nM,104 ± 4.96%,9.55,129 nM,,,,,,,
"Cc1ccc(O)c(CNCCc2c[nH]c3ccccc23)c1 [Compound 23, N-(2-Hydroxy-5-methylbenzyl)-[2-(1H-indol-3-yl)ethyl]amine]",0.36,741 nM,2.77,269 nM,110 nM,0.91,43.6 ± 0.9%,100 nM,89.4 ± 3.86%,1.10,155 nM,,,,,,,
"Oc1ccc(F)cc1CNCCc1c[nH]c2ccccc12 [Compound 24, N-(5-Fluoro-2-hydroxybenzyl)-[2-(1H-indol-3-yl)ethyl]amine]",0.14,759 nM,7.15,105 nM,75.9 nM,0.35,71.6 ± 1.95%,26.3 nM,105 ± 2.19%,2.88,77.6 nM,,,,,,,794 nM
"COc1ccc(F)cc1CNCCc1c[nH]c2ccccc12 [Compound 25, N-(5-Fluoro-2-methoxybenzyl)-[2-(1H-indol-3-yl)ethyl]amine]",0.42,363 nM,2.40,151 nM,60.3 nM,0.87,58 ± 1.95%,52.5 nM,110 ± 2.19%,1.15,95.5 nM,,,,,,,
"COc1ccc(Br)cc1CNCCc1c[nH]c2ccccc12 [Compound 27, N-(5-Bromo-2-methoxybenzyl)-[2-(1H-indol-3-yl)ethyl]amine]",0.12,1120 nM,8.22,135 nM,17800 nM,0.015,69 ± 3.51%,263 nM,111 ± 4.63%,67.6,91.2 nM,,,17800 nM,,,,
"COc1ccc(Cl)cc1CNCCc1c[nH]c2ccccc12 [Compound 28, N-(5-Chloro-2-methoxybenzyl)-[2-(1H-indol-3-yl)ethyl]amine]",1.35,977 nM,0.74,1320 nM,8910 nM,0.027,69.2 ± 2.67%,240 nM,110 ± 3.35%,37.2,794 nM,,,8910 nM,,,,
"COc1ccc(OC)c(CNCCc2c[nH]c3ccccc23)c1 [Compound 29, N-(2,5-Dimethoxybenzyl)-[2-(1H-indol-3-yl)ethyl]amine]",0.26,331 nM,3.85,87.1 nM,3470 nM,0.038,39 ± 0.67%,132 nM,118 ± 4.45%,26.3,57.5 nM,,,,,,,
"Oc1cc(Br)ccc1CNCCc1c[nH]c2ccccc12 [Compound 31, N-(4-Bromo-2-hydroxybenzyl)-[2-(1H-indol-3-yl)ethyl]amine]",0.38,1550 nM,2.63,603 nM,24500 nM,0.033,62.5 ± 10.8%,813 nM,74.8 ± 2.6%,30.2,110 nM,,,,,,,
